Several values for one entry are separate records, joined by “and”; a condition that tells them apart may be missing. Equal entries are not always repeated. Where two headings read alike, the source gives them in different places.
Key:
[1] = molecular target: CypD (Homo sapiens, UniProt P30405); assay: Chymotrypsin coupled prolyl-isomerase assay; settings: for CypD prolyl-isomerase assay raw dose-response value: Fig. 3b source data, replicates; for selectivity for CypD against the remaining six cyclophilins / selectivity for CypD over CypA / selectivity for CypD over CypA and PPIL1 / selectivity for CypD over CypE and CypB: prolyl-isomerase IC50
Chain of CypD (P30405 45-207): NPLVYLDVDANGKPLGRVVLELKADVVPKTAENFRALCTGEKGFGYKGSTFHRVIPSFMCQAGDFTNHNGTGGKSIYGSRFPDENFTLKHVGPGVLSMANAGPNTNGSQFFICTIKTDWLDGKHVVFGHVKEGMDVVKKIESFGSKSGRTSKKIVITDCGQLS

[2] = molecular target: T1, CypA E81S/K82R (Homo sapiens, UniProt P62937, E81S/K82R); assay: Chymotrypsin coupled prolyl-isomerase assay; type: biochemical
T1 construct: Lane 12- SNA-CypA E81S/K82R (1-165);; His6 tag with TEV site (2BT vector); SNA remnant stays on the N-terminus (N, cleaved yes); made in house; host or cells: E. coli BL21(DE3)
T1 sequence (P62937 whole entry E81S/K82R): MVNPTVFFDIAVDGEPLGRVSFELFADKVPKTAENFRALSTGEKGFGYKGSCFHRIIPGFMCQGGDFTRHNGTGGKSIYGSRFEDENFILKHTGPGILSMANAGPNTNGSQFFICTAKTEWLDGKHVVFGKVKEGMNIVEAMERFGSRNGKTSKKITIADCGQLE
How it was run: (§1)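 5 nM Cyp, HEPES pH 7.3/NaCl/Triton buffer, 2–3 °C; cpd 5 min, chymotrypsin 25 µM 5 min, then Suc-AAPF-AMC 5 µM in LiCl/TFE. Kinetic fluorescence 330 s. Per-well rate constants, normalized, IC50 from nonlinear fit.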

[3] = molecular target: T2, CypD K118A (Homo sapiens, UniProt P30405, K118A); assay: Chymotrypsin coupled prolyl-isomerase assay; type: biochemical; settings: prolyl-isomerase inhibition
T2 construct: made in house; host or cells: E. coli BL21(DE3)
T2 sequence (P30405 45-207 K118A): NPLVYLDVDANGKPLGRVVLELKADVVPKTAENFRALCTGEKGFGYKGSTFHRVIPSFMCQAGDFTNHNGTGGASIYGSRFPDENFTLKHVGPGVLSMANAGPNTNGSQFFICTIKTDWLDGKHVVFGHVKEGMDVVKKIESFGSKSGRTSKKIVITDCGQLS
How it was run: as §1

[4] = molecular target: T3, CypD K118E (Homo sapiens, UniProt P30405, K118E); assay: Chymotrypsin coupled prolyl-isomerase assay; type: biochemical; settings: prolyl-isomerase inhibition
T3 construct: made in house; host or cells: E. coli BL21(DE3)
T3 sequence (P30405 45-207 K118E): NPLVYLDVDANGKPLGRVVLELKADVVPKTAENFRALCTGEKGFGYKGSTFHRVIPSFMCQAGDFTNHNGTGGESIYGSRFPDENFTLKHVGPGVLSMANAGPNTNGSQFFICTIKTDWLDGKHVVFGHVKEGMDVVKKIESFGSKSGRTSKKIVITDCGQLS
How it was run: as §1

[5] = molecular target: T4, CypD R124A (Homo sapiens, UniProt P30405, R124A); assay: Chymotrypsin coupled prolyl-isomerase assay; type: biochemical; settings: mutant CypD R124A; read-out: Mutant Cyclophilin Prolyl Isomerase Inhibition IC50 Values, CypD R124A
T4 construct: made in house; host or cells: E. coli BL21(DE3)
T4 sequence (P30405 45-207 R124A): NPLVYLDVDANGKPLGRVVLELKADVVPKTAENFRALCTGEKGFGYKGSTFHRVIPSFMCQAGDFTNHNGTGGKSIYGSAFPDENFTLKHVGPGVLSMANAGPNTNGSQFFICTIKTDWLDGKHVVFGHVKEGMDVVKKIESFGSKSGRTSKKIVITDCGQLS
How it was run: as §1

[6] = molecular target: T5, CypD R124K (Homo sapiens, UniProt P30405, R124K); assay: Chymotrypsin coupled prolyl-isomerase assay; type: biochemical; settings: mutant CypD R124K; read-out: Mutant Cyclophilin Prolyl Isomerase Inhibition IC50 Values, CypD R124K
T5 construct: made in house; host or cells: E. coli BL21(DE3)
T5 sequence (P30405 45-207 R124K): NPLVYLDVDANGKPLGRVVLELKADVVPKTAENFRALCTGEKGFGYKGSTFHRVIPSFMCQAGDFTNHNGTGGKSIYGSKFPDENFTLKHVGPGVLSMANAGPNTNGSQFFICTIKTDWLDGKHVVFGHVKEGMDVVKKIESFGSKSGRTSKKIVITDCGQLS
How it was run: as §1

[7] = molecular target: T6, CypB (Homo sapiens, UniProt P23284); assay: biochemical; settings: for CypB prolyl-isomerase assay raw dose-response value: Fig. 3b source data, replicates
T6 construct: PPIB (UniProtKB Entry P23284: residues 34–216); His6 with TEV site (2BT vector leader) (N); made in house; host or cells: E. coli BL21(DE3)
T6 sequence (P23284 34-216): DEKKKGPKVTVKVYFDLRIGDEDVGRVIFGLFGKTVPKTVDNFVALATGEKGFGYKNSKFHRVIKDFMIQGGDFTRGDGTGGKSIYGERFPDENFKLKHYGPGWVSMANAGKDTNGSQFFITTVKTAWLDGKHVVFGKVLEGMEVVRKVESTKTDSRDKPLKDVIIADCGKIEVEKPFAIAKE
How it was run: as §1

[8] = molecular target: T7, PPWD1 (Homo sapiens, UniProt Q96BP3); assay: Chymotrypsin coupled prolyl-isomerase assay; type: biochemical; settings: for PPWD1 prolyl-isomerase assay raw dose-response value: Fig. 3b source data, replicates
T7 construct: PPWD1 (UniProtKB Entry Q96BP3: residues 473–646); host or cells: E. coli BL21(DE3)
T7 sequence (Q96BP3 473-646): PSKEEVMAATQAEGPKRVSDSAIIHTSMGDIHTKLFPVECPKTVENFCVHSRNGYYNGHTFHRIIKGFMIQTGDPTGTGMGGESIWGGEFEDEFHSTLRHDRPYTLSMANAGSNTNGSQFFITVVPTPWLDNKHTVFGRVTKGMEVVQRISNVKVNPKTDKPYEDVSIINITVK
Method: Five microliters of compound pre-dissolved in 5% DMSO/assay buffer was then added to appropriate wells and incubated at 2–3 °C for 5 min. Five microliters of 0.5 mM α-chymotrypsin from bovine pancreas (Type II, lyophilized powder, Millipore-Sigma) in 20% 1 mM HCl/Assay Buffer was then added to each well and incubated at 2–3 °C for 5 min. The plate was then quickly transferred to a FLIPR Tetra High-Throughput Cellular Screening System (Molecular Devices). Using the internal liquid handling system of the FLIPR, 1 µL 0.5 mM Suc-AAPF-AMC (Chymotrypsin Substrate II, Millipore-Sigma) dissolved in 0.55 M LiCl/2,2,2-trifluoroethanol was added to each well, which was then mixed for 5 s, followed by immediate fluorescence measurements every 1 s for 330 s using a 360–380 nm excitation LED module and a 400–460 nm emission filter. […] Raw fluorescence data was analyzed by non-linear regression analysis with Prism v.9 by fitting one-phase association curves to each well. Analyses were halted after the calculated maximum fluorescent value owing to observed fluorescent bleaching during the sustained fluorescent plateau. Rate constants calculated for each well (s^−1) were then normalized to substrate only (no prolyl-isomerase) and enzyme + substrate only controls.

[9] = CypB (comparator for CypB E121S), read-out: Mutant Cyclophilin Prolyl Isomerase Inhibition IC50 Values, CypB
[10] = prolyl-isomerase inhibition, 5 nM cyclophilin, read-out: IC50 CypB
[11] = wild-type CypB, read-out: Wild-Type Cyclophilin Prolyl Isomerase Inhibition IC50 Values, CypB
[12] = prolyl-isomerase inhibition, 5 nM cyclophilin, read-out: IC50 PPWD1
[13] = wild-type PPWD1, read-out: Wild-Type Cyclophilin Prolyl Isomerase Inhibition IC50 Values, PPWD1
[14] = IC50 CypD, Independent replicate 1, mean±SEM of 3 technical replicates
[15] = IC50 CypD, Independent replicate 2
[16] = IC50 CypD, Independent replicate 3
[17] = IC50 CypD, Independent replicate 4
[18] = prolyl-isomerase inhibition, read-out: IC50 CypA E81S/K82R
[19] = Independent replicate 2, read-out: IC50 CypB
[20] = Independent replicate 3, read-out: IC50 CypB
[21] = Independent replicate 4, read-out: IC50 CypB
[22] = prolyl-isomerase inhibition, read-out: IC50 CypB
[23] = Independent replicate 1, read-out: IC50 PPWD1
[24] = Independent replicate 2, read-out: IC50 PPWD1
[25] = Independent replicate 3, read-out: IC50 PPWD1
[26] = Independent replicate 4, read-out: IC50 PPWD1

NCCOCCNC(=O)[C@@H]1CCNC(=O)/C=C/C(=O)N2CCC[C@](Cc3ccccc3)(C2)C(=O)N[C@@H](Cc2ccc(-c3ccc(C#CC(=O)O)cc3)cc2)C(=O)NCc2ccccc2CC(=O)N1 [Compound B25]
IC50 [1]: 3 nM | CypD prolyl-isomerase assay raw dose-response value ([1]; Dose 0.000457247 µM): 0.0674 and 0.06729 and 0.07005 | CypD prolyl-isomerase assay raw dose-response value ([1]; Dose 0.00137174 µM): 0.06909 and 0.05826 and 0.0465 | CypD prolyl-isomerase assay raw dose-response value ([1]; Dose 0.00411523 µM): 0.04183 and 0.04697 and 0.03133 | CypD prolyl-isomerase assay raw dose-response value ([1]; Dose 0.0123457 µM): 0.02432 and 0.02391 and 0.02276 | CypD prolyl-isomerase assay raw dose-response value ([1]; Dose 0.037037 µM): 0.01562 and 0.01516 and 0.01481 | CypD prolyl-isomerase assay raw dose-response value ([1]; Dose 0.111111 µM): 0.01259 and 0.0133 and 0.01227 | CypD prolyl-isomerase assay raw dose-response value ([1]; Dose 0.333333 µM): 0.01238 and 0.01154 and 0.0111 | CypD prolyl-isomerase assay raw dose-response value ([1]; Dose 1 µM): 0.01437 and 0.01145 and 0.01083 | IC50 ([2]; mutant CypA E81S/K82R, read-out: Mutant Cyclophilin Prolyl Isomerase Inhibition IC50 Values, CypA E81S/K82R): 6.2 nM | IC50 [3]: 19 nM | IC50 [4]: 60 nM | IC50 [5]: 2 nM | IC50 [6]: 2.9 nM | IC50 [7, 9]: 11 nM | CypB prolyl-isomerase assay raw dose-response value ([7]; Dose 0.000457247 µM): 0.06463 and 0.04091 and 0.06594 | CypB prolyl-isomerase assay raw dose-response value ([7]; Dose 0.00137174 µM): 0.06615 and 0.04875 and 0.05304 | CypB prolyl-isomerase assay raw dose-response value ([7]; Dose 0.00411523 µM): 0.04683 and 0.04984 | CypB prolyl-isomerase assay raw dose-response value ([7]; Dose 0.0123457 µM): 0.03647 and 0.03228 and 0.03371 | CypB prolyl-isomerase assay raw dose-response value ([7]; Dose 0.037037 µM): 0.02322 and 0.02268 and 0.02146 | CypB prolyl-isomerase assay raw dose-response value ([7]; Dose 0.111111 µM): 0.01709 and 0.01633 and 0.0158 | CypB prolyl-isomerase assay raw dose-response value ([7]; Dose 0.333333 µM): 0.01481 and 0.01358 and 0.01262 | CypB prolyl-isomerase assay raw dose-response value ([7]; Dose 1 µM): 0.01394 and 0.01269 and 0.01205 | IC50 [7, 10]: 11 ± 3 nM | IC50 [7, 11]: 11 nM | PPWD1 prolyl-isomerase assay raw dose-response value ([8]; Dose 0.0228624 µM): 0.03895 and 0.0361 and 0.043 | PPWD1 prolyl-isomerase assay raw dose-response value ([8]; Dose 0.0685871 µM): 0.04294 and 0.03257 and 0.04643 | PPWD1 prolyl-isomerase assay raw dose-response value ([8]; Dose 0.205761 µM): 0.03704 and 0.0362 | PPWD1 prolyl-isomerase assay raw dose-response value ([8]; Dose 0.617284 µM): 0.03731 (2×) and 0.0336 | PPWD1 prolyl-isomerase assay raw dose-response value ([8]; Dose 1.85185 µM): 0.03718 and 0.0343 and 0.0411 | PPWD1 prolyl-isomerase assay raw dose-response value ([8]; Dose 5.55556 µM): 0.03268 and 0.0311 and 0.02851 | PPWD1 prolyl-isomerase assay raw dose-response value ([8]; Dose 16.6667 µM): 0.02501 and 0.02576 and 0.02254 | PPWD1 prolyl-isomerase assay raw dose-response value ([8]; Dose 50 µM): 0.01888 and 0.01599 and 0.01588 | IC50 [8, 12]: ~10 µM | IC50 [8, 13]: 10 µM

NCCOCCNC(=O)[C@@H]1CCNC(=O)/C=C/C(=O)N2CCC[C@](Cc3ccccc3)(C2)C(=O)N[C@@H](Cc2ccc(-c3ccc(CC(C(=O)O)C(=O)O)cc3)cc2)C(=O)NCc2ccccc2CC(=O)N1 [Compound B52]
IC50 [1]: 10 ± 4 nM | IC50 [1, 14]: 10 ± 2 nM | IC50 [1, 15]: 11 ± 4 nM | IC50 [1, 16]: 11 ± 5 nM | IC50 [1, 17]: 10 ± 5 nM | IC50 ([1]; IC50 CypD, prolyl-isomerase inhibition): 10 nM | IC50 ([1]; Wild-Type Cyclophilin Prolyl Isomerase Inhibition IC50 Values, CypD, wild-type CypD): 10 nM | selectivity for CypD against the remaining six cyclophilins [1]: > 900 fold | selectivity for CypD over CypA [1]: > 100 fold and 100 fold | selectivity for CypD over CypA and PPIL1 [1]: 60- to 900 fold | selectivity for CypD over CypE and CypB [1]: 15- to 30 fold | IC50 ([1]; read-out: IC50 CypD, prolyl-isomerase inhibition, 5 nM cyclophilin, Suc-AAPF-AMC, mean±s.e.m. of 3 technical replicates (B52, B53, C3A wild-type: mean±s.d. of 4 independent replicates)): 10 nM | IC50 [2, 18]: 27 nM | IC50 [3]: 73 nM | IC50 [4]: 300 nM | IC50 [5]: 17 nM | IC50 [6]: 20 nM | IC50 [7, 9]: 200 nM | IC50 ([7]; Independent replicate 1, read-out: IC50 CypB): 200 ± 50 nM | IC50 [7, 19]: 190 ± 30 nM | IC50 [7, 20]: 210 ± 40 nM | IC50 [7, 21]: 200 ± 100 nM | IC50 [7, 10]: 210 nM | IC50 [7, 22]: 210 nM | IC50 [7, 11]: 210 nM | IC50 [8, 23]: > 100 µM | IC50 [8, 24]: > 100 µM | IC50 [8, 25]: > 100 µM | IC50 [8, 26]: > 100 µM | IC50 [8, 12]: > 100 µM | IC50 ([8]; prolyl-isomerase inhibition, read-out: IC50 PPWD1): > 100 µM | IC50 [8, 13]: > 100 µM

NCCOCCNC(=O)[C@@H]1CCNC(=O)/C=C/C(=O)N2CCC[C@](Cc3ccccc3)(C2)C(=O)N[C@@H](Cc2ccc(-c3ccc(C(CC(=O)O)CC(=O)O)cc3)cc2)C(=O)NCc2ccccc2CC(=O)N1 [Compound B53]
IC50 [1]: 57 nM | IC50 [1, 14]: 40 ± 10 nM | IC50 [1, 15]: 50 ± 20 nM | IC50 [1, 16]: 60 ± 20 nM | IC50 [1, 17]: 60 ± 30 nM | selectivity for CypD against the remaining six cyclophilins [1]: > 900 fold | selectivity for CypD over CypA [1]: > 100 fold and 100 fold | selectivity for CypD over CypA and PPIL1 [1]: 60- to 900 fold | selectivity for CypD over CypE and CypB [1]: 15- to 30 fold | IC50 [2, 18]: 180 nM | IC50 [3]: 900 nM | IC50 [4]: 4000 nM | IC50 [5]: 32 nM | IC50 [6]: 100 nM | IC50 [7, 9]: 500 nM | IC50 [7, 19]: 1600 ± 600 nM | IC50 [7, 20]: 1100 ± 500 nM | IC50 [7, 21]: 1300 ± 800 nM | IC50 [7, 10]: 1100 nM | IC50 [7, 22]: 1100 nM | IC50 [7, 11]: 1100 nM | IC50 [8, 23]: > 50 µM | IC50 [8, 24]: > 50 µM | IC50 [8, 25]: > 50 µM | IC50 [8, 26]: > 50 µM | IC50 [8, 12]: > 50 µM | IC50 [8, 13]: > 50 µM
